In BindingDB's records for patent US9694002 (Genentech Inc, 2017):

Target: Sodium channel protein type 9 subunit alpha (Homo sapiens, UniProt Q15858)
Test: Radioligand Binding Assay
Settings: pH 7.4; 25 °C
Protocol: Binding of this radioligand was preformed in 5 mL borosilicate glass test tubes at room temperature. […] Non-specific binding was determined in the presence of 1 uM unlabelled compound. […] [3H]compound bound to filters was quantified by liquid scintillation counting.

Chain of Sodium channel protein type 9 subunit alpha (Q15858 whole entry): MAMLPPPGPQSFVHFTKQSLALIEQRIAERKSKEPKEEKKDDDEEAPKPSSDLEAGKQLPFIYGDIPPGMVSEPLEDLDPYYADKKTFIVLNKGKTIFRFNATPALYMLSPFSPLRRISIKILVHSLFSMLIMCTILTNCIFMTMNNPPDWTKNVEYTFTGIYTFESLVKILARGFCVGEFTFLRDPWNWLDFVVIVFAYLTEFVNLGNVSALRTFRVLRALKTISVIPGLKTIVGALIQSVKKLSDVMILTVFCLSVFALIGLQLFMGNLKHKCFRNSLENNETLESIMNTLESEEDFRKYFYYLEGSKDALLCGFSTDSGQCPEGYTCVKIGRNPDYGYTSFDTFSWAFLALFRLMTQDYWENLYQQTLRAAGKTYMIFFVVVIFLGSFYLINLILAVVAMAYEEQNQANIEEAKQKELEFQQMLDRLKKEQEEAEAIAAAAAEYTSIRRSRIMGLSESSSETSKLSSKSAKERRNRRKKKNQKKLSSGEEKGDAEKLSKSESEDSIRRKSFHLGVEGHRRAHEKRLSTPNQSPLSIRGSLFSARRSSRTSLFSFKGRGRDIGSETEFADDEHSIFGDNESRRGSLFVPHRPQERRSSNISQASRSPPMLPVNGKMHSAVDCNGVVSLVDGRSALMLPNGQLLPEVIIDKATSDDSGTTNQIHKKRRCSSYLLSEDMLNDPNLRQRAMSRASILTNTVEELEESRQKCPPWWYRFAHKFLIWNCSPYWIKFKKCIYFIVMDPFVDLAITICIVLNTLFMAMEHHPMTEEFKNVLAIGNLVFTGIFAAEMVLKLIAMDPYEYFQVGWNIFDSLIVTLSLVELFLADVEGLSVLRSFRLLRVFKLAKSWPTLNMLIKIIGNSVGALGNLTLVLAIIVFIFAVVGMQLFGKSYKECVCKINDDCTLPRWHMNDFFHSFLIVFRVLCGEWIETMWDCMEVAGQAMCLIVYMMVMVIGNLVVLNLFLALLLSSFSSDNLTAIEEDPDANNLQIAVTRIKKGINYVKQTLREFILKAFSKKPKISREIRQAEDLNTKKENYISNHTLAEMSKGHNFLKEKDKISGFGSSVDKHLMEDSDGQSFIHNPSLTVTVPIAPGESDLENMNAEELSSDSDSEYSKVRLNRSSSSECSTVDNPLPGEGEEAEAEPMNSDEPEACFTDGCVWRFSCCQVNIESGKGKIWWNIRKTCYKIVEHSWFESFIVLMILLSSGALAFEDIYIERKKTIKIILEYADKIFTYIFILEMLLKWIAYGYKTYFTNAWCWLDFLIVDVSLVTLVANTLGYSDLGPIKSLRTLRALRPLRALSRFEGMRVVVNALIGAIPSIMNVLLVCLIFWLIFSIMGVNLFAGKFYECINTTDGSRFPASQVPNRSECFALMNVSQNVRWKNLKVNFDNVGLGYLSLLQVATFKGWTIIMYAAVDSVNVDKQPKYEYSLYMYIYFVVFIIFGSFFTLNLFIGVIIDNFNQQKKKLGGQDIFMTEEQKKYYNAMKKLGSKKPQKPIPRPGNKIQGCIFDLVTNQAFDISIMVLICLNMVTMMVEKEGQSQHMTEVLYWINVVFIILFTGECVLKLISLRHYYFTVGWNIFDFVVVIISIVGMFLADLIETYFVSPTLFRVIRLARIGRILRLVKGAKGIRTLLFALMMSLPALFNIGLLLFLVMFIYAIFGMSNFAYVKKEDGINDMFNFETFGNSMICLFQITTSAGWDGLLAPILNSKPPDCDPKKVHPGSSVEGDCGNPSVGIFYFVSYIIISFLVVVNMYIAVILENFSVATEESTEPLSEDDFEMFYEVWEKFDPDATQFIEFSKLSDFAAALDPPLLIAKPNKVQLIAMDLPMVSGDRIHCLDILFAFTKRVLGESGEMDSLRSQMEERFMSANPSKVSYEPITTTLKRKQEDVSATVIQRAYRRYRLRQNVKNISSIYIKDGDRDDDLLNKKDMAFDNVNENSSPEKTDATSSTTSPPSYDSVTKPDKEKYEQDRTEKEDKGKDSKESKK

Row | Compound | IC50 [nM]
1 | O=C(NS(=O)(=O)C1CC1)c1cc(C2CC2)c(CN2CCC(Oc3ccc(Cl)cc3)CC2)cc1F [US9694002, 504] | 16
2 | CS(=O)(=O)NC(=O)c1cc(C2CC2)c(CN2CCC(Oc3ccc(Cl)cc3)CC2)cc1F [US9694002, 503] | 30
